How the values were obtained:
Type in all cases: cell-based
[1] = target: T1, human TLR8 (Homo sapiens, UniProt Q9NR97); test: TLR8 inhibition reporter assay (HEK-Blue SEAP reporter, R848 stimulation); settings: HEK-Blue cells overexpressing human TLR8, SEAP reporter, R848 15.9 μM, 22 hour incubation
T1 construct: host or cells: HEK-Blue cells
T1 sequence (Q9NR97 27-1041): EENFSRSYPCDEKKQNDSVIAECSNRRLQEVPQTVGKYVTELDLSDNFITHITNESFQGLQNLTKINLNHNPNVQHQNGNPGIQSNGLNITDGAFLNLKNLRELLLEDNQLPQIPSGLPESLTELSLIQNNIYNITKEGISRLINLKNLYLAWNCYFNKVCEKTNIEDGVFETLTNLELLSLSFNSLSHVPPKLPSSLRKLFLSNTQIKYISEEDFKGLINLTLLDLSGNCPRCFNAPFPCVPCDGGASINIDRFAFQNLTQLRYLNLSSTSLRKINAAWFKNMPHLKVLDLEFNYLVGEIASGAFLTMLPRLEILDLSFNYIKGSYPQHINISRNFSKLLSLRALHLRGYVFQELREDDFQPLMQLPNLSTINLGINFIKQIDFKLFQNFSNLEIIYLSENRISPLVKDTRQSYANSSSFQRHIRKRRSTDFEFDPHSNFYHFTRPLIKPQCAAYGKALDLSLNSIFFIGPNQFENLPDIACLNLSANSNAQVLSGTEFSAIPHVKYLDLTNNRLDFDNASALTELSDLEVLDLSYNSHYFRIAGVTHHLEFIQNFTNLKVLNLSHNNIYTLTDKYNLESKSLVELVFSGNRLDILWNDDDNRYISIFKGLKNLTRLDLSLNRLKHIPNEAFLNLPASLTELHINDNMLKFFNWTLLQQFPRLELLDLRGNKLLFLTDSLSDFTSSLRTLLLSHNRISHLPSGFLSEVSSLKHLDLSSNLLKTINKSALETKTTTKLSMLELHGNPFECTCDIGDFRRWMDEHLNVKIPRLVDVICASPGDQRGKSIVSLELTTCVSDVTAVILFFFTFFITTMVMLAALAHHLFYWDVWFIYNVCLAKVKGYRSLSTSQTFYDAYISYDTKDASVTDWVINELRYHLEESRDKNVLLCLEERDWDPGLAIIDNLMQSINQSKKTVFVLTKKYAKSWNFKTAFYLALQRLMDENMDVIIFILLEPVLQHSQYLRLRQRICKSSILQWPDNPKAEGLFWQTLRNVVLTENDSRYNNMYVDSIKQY
Method in brief: (§1)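 Dose–response from 0.05 nM to 50 μM was run in HEK-Blue human TLR7, TLR8 and TLR9 reporter cells. After 30 min at room temperature with compound, ligand was added (TLR7 gardiquimod 7.5 μM; TLR8 R848 15.9 μM; TLR9 ODN2006 5 nM) and SEAP measured next day, at 22 h.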

[2] = target: T2, human TLR7 (Homo sapiens, UniProt Q9NYK1); test: TLR7 inhibition reporter assay (HEK-Blue SEAP reporter, gardiquimod stimulation); settings: HEK-Blue cells overexpressing human TLR7, SEAP reporter, gardiquimod 7.5 μM, 22 hour incubation
T2 construct: host or cells: HEK-Blue cells
T2 sequence (Q9NYK1 27-1049): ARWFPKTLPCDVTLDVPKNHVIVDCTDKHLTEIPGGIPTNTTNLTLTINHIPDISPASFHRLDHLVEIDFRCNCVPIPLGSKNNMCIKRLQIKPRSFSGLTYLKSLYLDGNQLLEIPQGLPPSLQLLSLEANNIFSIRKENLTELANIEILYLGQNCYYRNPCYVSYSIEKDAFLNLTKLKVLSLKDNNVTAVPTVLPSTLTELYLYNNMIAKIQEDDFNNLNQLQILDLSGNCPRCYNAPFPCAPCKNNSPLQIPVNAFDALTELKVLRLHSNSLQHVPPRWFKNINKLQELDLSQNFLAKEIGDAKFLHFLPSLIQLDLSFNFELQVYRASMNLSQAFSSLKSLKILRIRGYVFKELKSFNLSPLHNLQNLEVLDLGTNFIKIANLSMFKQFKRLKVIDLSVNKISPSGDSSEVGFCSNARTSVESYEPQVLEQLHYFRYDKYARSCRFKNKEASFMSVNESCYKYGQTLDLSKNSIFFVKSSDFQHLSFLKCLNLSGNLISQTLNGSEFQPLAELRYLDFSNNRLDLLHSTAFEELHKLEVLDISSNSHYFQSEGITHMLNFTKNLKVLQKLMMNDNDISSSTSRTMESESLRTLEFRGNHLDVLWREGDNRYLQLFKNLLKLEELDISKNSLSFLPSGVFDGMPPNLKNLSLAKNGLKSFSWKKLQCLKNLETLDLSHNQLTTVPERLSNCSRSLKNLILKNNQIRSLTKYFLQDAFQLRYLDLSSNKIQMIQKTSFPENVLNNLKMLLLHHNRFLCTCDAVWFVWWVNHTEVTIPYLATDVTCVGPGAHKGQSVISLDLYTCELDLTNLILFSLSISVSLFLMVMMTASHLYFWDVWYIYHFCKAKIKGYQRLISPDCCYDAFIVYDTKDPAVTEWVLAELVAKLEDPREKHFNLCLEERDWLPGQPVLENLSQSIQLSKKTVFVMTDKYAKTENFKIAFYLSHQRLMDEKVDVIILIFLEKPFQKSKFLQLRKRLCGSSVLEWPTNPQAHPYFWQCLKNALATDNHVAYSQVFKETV
Method in brief: as §1

[3] = target: T3, human TLR9 (Homo sapiens, UniProt Q9NR96); test: TLR9 inhibition reporter assay (HEK-Blue SEAP reporter, ODN2006 stimulation); settings: HEK-Blue cells overexpressing human TLR9, SEAP reporter, ODN2006 5 nM, 22 hour incubation
T3 construct: host or cells: HEK-Blue cells
T3 sequence (Q9NR96 26-1032): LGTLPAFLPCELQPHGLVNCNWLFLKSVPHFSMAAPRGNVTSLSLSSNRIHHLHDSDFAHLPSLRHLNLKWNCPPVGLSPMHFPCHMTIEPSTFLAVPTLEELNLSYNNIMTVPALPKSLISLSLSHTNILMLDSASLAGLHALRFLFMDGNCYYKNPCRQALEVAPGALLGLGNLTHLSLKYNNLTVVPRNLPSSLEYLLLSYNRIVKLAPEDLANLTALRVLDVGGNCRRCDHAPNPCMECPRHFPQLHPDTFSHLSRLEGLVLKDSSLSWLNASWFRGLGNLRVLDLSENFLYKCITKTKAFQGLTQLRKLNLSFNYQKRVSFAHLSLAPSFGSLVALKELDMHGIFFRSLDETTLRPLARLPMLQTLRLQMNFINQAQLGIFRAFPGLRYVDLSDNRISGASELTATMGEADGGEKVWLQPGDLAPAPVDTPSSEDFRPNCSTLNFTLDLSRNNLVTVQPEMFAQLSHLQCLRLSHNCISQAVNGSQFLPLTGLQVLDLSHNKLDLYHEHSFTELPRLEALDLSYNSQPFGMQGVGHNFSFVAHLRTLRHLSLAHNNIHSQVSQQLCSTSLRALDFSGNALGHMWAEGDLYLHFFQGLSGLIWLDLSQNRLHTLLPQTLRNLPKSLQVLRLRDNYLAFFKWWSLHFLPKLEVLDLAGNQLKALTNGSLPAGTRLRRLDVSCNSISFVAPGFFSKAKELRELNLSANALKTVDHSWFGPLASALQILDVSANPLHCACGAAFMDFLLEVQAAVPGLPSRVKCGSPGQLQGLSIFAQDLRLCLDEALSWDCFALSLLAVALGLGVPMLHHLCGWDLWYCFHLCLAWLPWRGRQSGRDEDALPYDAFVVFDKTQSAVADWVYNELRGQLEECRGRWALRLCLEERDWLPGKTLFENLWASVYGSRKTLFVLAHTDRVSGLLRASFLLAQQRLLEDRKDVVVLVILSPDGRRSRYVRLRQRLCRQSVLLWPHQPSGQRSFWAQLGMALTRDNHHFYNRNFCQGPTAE
Method in brief: as §1

SMILES	IC50 [1]	IC50 [2]	IC50 [3]
CNC(=O)CN1CCC(c2ccc3[nH]c(-c4cn(C)c(=O)c(OC)c4C)c(C(C)C)c3c2)CC1 [Example 140, 2-(4-(3-isopropyl-2-(5-methoxy-1,4-dimethyl-6-oxo-1,6-dihydropyridin-3-yl)-1H-indol-5-yl)piperidin-1-yl)-N-methylacetamide]	39.7 nM	47.8 nM	21900 nM
COc1c(C)c(-c2[nH]c3ccc(C4CCN(CC(=O)N(C)C)CC4)cc3c2C(C)C)cn(C)c1=O [Example 141, 2-(4-(3-isopropyl-2-(5-methoxy-1,4-dimethyl-6-oxo-1,6-dihydropyridin-3-yl)-1H-indol-5-yl)piperidin-1-yl)-N,N-dimethylacetamide]	37.3 nM	27.9 nM	4460 nM
CNC(=O)CN1CCC(c2ccc3[nH]c(-c4cc(OC)c(=O)n(C)c4C)c(C(C)C)c3c2)CC1 [Example 142, 2-(4-(3-isopropyl-2-(5-methoxy-1,2-dimethyl-6-oxo-1,6-dihydropyridin-3-yl)-1H-indol-5-yl)piperidin-1-yl)-N-methylacetamide]	95.4 nM	205 nM	7650 nM
COc1cc(-c2[nH]c3ccc(C4CCN(CC(=O)N(C)C)CC4)cc3c2C(C)C)c(C)n(C)c1=O [Example 143, 2-(4-(3-isopropyl-2-(5-methoxy-1,2-dimethyl-6-oxo-1,6-dihydropyridin-3-yl)-1H-indol-5-yl)piperidin-1-yl)-N,N-dimethylacetamide]	99.7 nM	413 nM	2720 nM
CNC(=O)CN1CCC(c2ccc3[nH]c(-c4cc(C#N)c(=O)n(C)c4C)c(C(C)C)c3c2)CC1 [Example 144, 2-(4-(2-(5-cyano-1,2-dimethyl-6-oxo-1,6-dihydropyridin-3-yl)-3-isopropyl-1H-indol-5-yl)piperidin-1-yl)-N-methylacetamide]	4.7 nM	59.9 nM	11400 nM
Cc1c(-c2[nH]c3ccc(C4CCN(CC(=O)N(C)C)CC4)cc3c2C(C)C)cc(C#N)c(=O)n1C [Example 145, 2-(4-(2-(5-cyano-1,2-dimethyl-6-oxo-1,6-dihydropyridin-3-yl)-3-isopropyl-1H-indol-5-yl)piperidin-1-yl)-N,N-dimethylacetamide]	10.7 nM	63.8 nM	7170 nM
CNC(=O)CN1CCC(c2ccc3[nH]c(-c4cn(C)c(=O)c(C#N)c4C)c(C(C)C)c3c2)CC1 [Example 146, 2-(4-(2-(5-cyano-1,4-dimethyl-6-oxo-1,6-dihydropyridin-3-yl)-3-isopropyl-1H-indol-5-yl)piperidin-1-yl)-N-methylacetamide]	4.5 nM	38.8 nM	6990 nM
Cc1c(-c2[nH]c3ccc(C4CCN(CC(=O)N(C)C)CC4)cc3c2C(C)C)cn(C)c(=O)c1C#N [Example 147, 2-(4-(2-(5-cyano-1,4-dimethyl-6-oxo-1,6-dihydropyridin-3-yl)-3-isopropyl-1H-indol-5-yl)piperidin-1-yl)-N,N-dimethylacetamide]	4.8 nM	56.3 nM	5020 nM
Cc1cc(-c2[nH]c3ccc(C4CCN(C(C)(C)C(=O)O)CC4)cc3c2C(C)C)cn(C)c1=O [Example 148, 2-(4-(2-(1,5-dimethyl-6-oxo-1,6-dihydropyridin-3-yl)-3-isopropyl-1H-indol-5-yl)piperidin-1-yl)-2-methylpropanoic acid]	364 nM	193 nM	≥ 50000 nM
Cc1cc(-c2[nH]c3ccc(C4CCN(C5CC(C)OC5=O)CC4)cc3c2C(C)C)cn(C)c1=O (stereo not drawn) [Example 149, 5-(3-isopropyl-5-(1-(5-methyl-2-oxotetrahydrofuran-3-yl)piperidin-4-yl)-1H-indol-2-yl)-1,3-dimethylpyridin-2(1H)-one]	27.3 nM	16 nM	23200 nM
Cc1cc(-c2[nH]c3ccc(C4CCN(CC(N)=O)CC4)cc3c2C(C)C)cn(C)c1=O [Example 150, 2-(4-(2-(1,5-dimethyl-6-oxo-1,6-dihydropyridin-3-yl)-3-isopropyl-1H-indol-5-yl)piperidin-1-yl)acetamide]	4.4 nM	1.2 nM	11400 nM
Cc1cc(-c2[nH]c3ccc(C4CCN(C(C)(C)C(N)=O)CC4)cc3c2C(C)C)cn(C)c1=O [Example 151, 2-(4-(2-(1,5-dimethyl-6-oxo-1,6-dihydropyridin-3-yl)-3-isopropyl-1H-indol-5-yl)piperidin-1-yl)-2-methylpropanamide]	13.7 nM	1.2 nM	11000 nM
Cc1c(-c2[nH]c3ccc(C4CCN(CC(=O)N(C)C)CC4)cc3c2C(C)C)cn(C)c(=O)c1Cl [Example 152, 2-(4-(2-(5-chloro-1,4-dimethyl-6-oxo-1,6-dihydropyridin-3-yl)-3-isopropyl-1H-indol-5-yl)piperidin-1-yl)-N,N-dimethylacetamide]	4.6 nM	1.4 nM	16600 nM
